Assay results taken from ChEMBL document CHEMBL1201862, “PubChem BioAssay data set” (2004).
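48-hour exposure; five concentrations; linearly interpolated endpoints. At the GI50, growth is halved.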 The source made the active and inactive calls. Rule as the data show it: active = GI50 up to about 1.1 µM and inactive = higher.

Assays:
Test in all cases: DTP human tumour cell line panel, 48 h
786-0 = system: 786-0
A549 = system: A549
ACHN = system: ACHN
BT-549 = system: BT-549
CAKI-1 = system: CAKI-1
CCRF-CEM = system: CCRF-CEM
COLO 205 = system: COLO 205
DU-145 = system: DU-145
EKVX = system: EKVX
HCC 2998 = system: HCC 2998
HCT-116 = system: HCT-116
HCT-15 = system: HCT-15
HL-60 = system: HL-60
HOP-62 = system: HOP-62
HOP-92 = system: HOP-92
HT-29 = system: HT-29
Hs-578T = system: Hs-578T
IGROV-1 = system: IGROV-1
K562 = system: K562
KM12 = system: KM12
LOX IMVI = system: LOX IMVI
M14 = system: M14
MCF7 = system: MCF7
MDA-MB-231 = system: MDA-MB-231
MDA-MB-435 = system: MDA-MB-435
MDA-N = system: MDA-N
MOLT-4 = system: MOLT-4
Malme-3M = system: Malme-3M
NCI-H226 = system: NCI-H226
NCI-H23 = system: NCI-H23
NCI-H460 = system: NCI-H460
NCI-H522 = system: NCI-H522
NCI/ADR-RES = system: NCI/ADR-RES
OVCAR-3 = system: OVCAR-3
OVCAR-4 = system: OVCAR-4
OVCAR-5 = system: OVCAR-5
OVCAR-8 = system: OVCAR-8
PC-3 = system: PC-3
RPMI-8226 = system: RPMI-8226
SF-268 = system: SF-268
SF-295 = system: SF-295
SF-539 = system: SF-539
SK-MEL-28 = system: SK-MEL-28
SK-MEL-2 = system: SK-MEL-2
SK-MEL-5 = system: SK-MEL-5
SK-OV-3 = system: SK-OV-3
SN12C = system: SN12C
SNB-19 = system: SNB-19
SR = system: SR
SW-620 = system: SW-620
T47D = system: T47D
TK-10 = system: TK-10
U-251 = system: U-251
UACC-257 = system: UACC-257
UACC-62 = system: UACC-62
UO-31 = system: UO-31
RXF 393 = system: RXF 393
SNB-75 = system: SNB-75

Clc1ccc(Cc2nc3cc(Cl)ccc3o2)cc1
GI50 (786-0): 34.4 µM (inactive) | GI50 (A549): 41.5 µM (inactive) | GI50 (ACHN): 35.6 µM (inactive) | GI50 (BT-549): 27.9 µM (inactive) | GI50 (CAKI-1): 30.6 µM (inactive) | GI50 (CCRF-CEM): 31.6 µM (inactive) | GI50 (COLO 205): 29.8 µM (inactive) | GI50 (DU-145): 60.8 µM (inactive) | GI50 (EKVX): 24.8 µM (inactive) | GI50 (HCC 2998): 21.6 µM (inactive) | GI50 (HCT-116): 35.1 µM (inactive) | GI50 (HCT-15): 29.5 µM | GI50 (HL-60): 30.4 µM (inactive) | GI50 (HOP-62): 17.4 µM (inactive) | GI50 (HOP-92): 31.6 µM (inactive) | GI50 (HT-29): 26.8 µM (inactive) | GI50 (Hs-578T): 40.8 µM (inactive) | GI50 (IGROV-1): 23.8 µM (inactive) | GI50 (K562): 46.1 µM (inactive) | GI50 (KM12): 29.7 µM (inactive) | GI50 (LOX IMVI): 14 µM (inactive) | GI50 (M14): 34.8 µM (inactive) | GI50 (MCF7): 38.5 µM (inactive) | GI50 (MDA-MB-231): 31.7 µM (inactive) | GI50 (MDA-MB-435): 28.7 µM (inactive) | GI50 (MDA-N): 36.1 µM (inactive) | GI50 (MOLT-4): 26.5 µM (inactive) | GI50 (Malme-3M): 36.1 µM (inactive) | GI50 (NCI-H226): 29.1 µM (inactive) | GI50 (NCI-H23): 33 µM (inactive) | GI50 (NCI-H460): 42.1 µM (inactive) | GI50 (NCI-H522): 21.7 µM (inactive) | GI50 (NCI/ADR-RES): 31.9 µM (inactive) | GI50 (OVCAR-3): 22.4 µM (inactive) | GI50 (OVCAR-4): 24.4 µM (inactive) | GI50 (OVCAR-5): 39.4 µM (inactive) | GI50 (OVCAR-8): 32.3 µM (inactive) | GI50 (PC-3): 32.4 µM (inactive) | GI50 (RPMI-8226): 30.9 µM (inactive) | GI50 (SF-268): 43 µM (inactive) | GI50 (SF-295): 22.8 µM (inactive) | GI50 (SF-539): 30.1 µM (inactive) | GI50 (SK-MEL-28): 41.4 µM (inactive) | GI50 (SK-MEL-2): 15.7 µM (inactive) | GI50 (SK-MEL-5): 15.3 µM (inactive) | GI50 (SK-OV-3): 23 µM (inactive) | GI50 (SN12C): 40.1 µM (inactive) | GI50 (SNB-19): 39.6 µM (inactive) | GI50 (SR): 30.7 µM (inactive) | GI50 (SW-620): 56.4 µM (inactive) | GI50 (T47D): 35.8 µM (inactive) | GI50 (TK-10): 52 µM (inactive) | GI50 (U-251): 27.7 µM (inactive) | GI50 (UACC-257): 33 µM (inactive) | GI50 (UACC-62): 36.9 µM (inactive) | GI50 (UO-31): 32 µM (inactive)

COc1ccc(C2Oc3c(cccc3OC)C=C2[N+](=O)[O-])cc1 (stereo unspecified)
GI50 (786-0): 2.31 µM (inactive) | GI50 (A549): 11.9 µM (inactive) | GI50 (ACHN): 1.74 µM (inactive) | GI50 (BT-549): 1.36 µM (inactive) | GI50 (CAKI-1): 1.58 µM (inactive) | GI50 (CCRF-CEM): 0.451 µM (active) | GI50 (COLO 205): 2.51 µM (inactive) | GI50 (DU-145): 4.38 µM (inactive) | GI50 (EKVX): 10.6 µM (inactive) | GI50 (HCT-116): 1.28 µM (inactive) | GI50 (HCT-15): 1.36 µM | GI50 (HL-60): 2.17 µM (inactive) | GI50 (HOP-62): 2.49 µM (inactive) | GI50 (HT-29): 1.63 µM (inactive) | GI50 (Hs-578T): 2.58 µM (inactive) | GI50 (IGROV-1): 3.33 µM (inactive) | GI50 (K562): 0.668 µM (active) | GI50 (KM12): 1.92 µM (inactive) | GI50 (LOX IMVI): 1.2 µM (inactive) | GI50 (M14): 0.743 µM (active) | GI50 (MCF7): 2.18 µM (inactive) | GI50 (MDA-MB-231): 3.3 µM (inactive) | GI50 (MDA-MB-435): 2.12 µM (inactive) | GI50 (MDA-N): 2 µM (inactive) | GI50 (MOLT-4): 1.19 µM (inactive) | GI50 (Malme-3M): 2.54 µM (inactive) | GI50 (NCI-H23): 3.08 µM (inactive) | GI50 (NCI-H460): 1.81 µM (inactive) | GI50 (NCI-H522): 1.32 µM (inactive) | GI50 (NCI/ADR-RES): 2.58 µM (inactive) | GI50 (OVCAR-3): 2 µM (inactive) | GI50 (OVCAR-4): 2.96 µM (inactive) | GI50 (OVCAR-5): 2.26 µM (inactive) | GI50 (OVCAR-8): 2.49 µM (inactive) | GI50 (PC-3): 1.69 µM (inactive) | GI50 (RPMI-8226): 2.01 µM (inactive) | GI50 (RXF 393): 1.4 µM (inactive) | GI50 (SF-268): 2.69 µM (inactive) | GI50 (SF-295): 3.83 µM (inactive) | GI50 (SK-MEL-28): 1.91 µM (inactive) | GI50 (SK-MEL-5): 1.51 µM (inactive) | GI50 (SK-OV-3): 4.26 µM (inactive) | GI50 (SN12C): 2.02 µM (inactive) | GI50 (SNB-19): 3.99 µM (inactive) | GI50 (SR): 2 µM (inactive) | GI50 (T47D): 3.75 µM (inactive) | GI50 (TK-10): 2.91 µM (inactive) | GI50 (U-251): 1.86 µM (inactive) | GI50 (UACC-257): 2.96 µM (inactive) | GI50 (UACC-62): 1.91 µM (inactive) | GI50 (UO-31): 1.71 µM (inactive)

c1cc(CSP234N5CCN2CCN3CCN4CC5)cc(CSP234N5CCN2CCN3CCN4CC5)c1
GI50 (786-0): > 100 µM (inactive) | GI50 (A549): 40.1 µM (inactive) | GI50 (ACHN): 33 µM (inactive) | GI50 (BT-549): 19.2 µM (inactive) | GI50 (CAKI-1): > 100 µM (inactive) | GI50 (CCRF-CEM): 16.5 µM (inactive) | GI50 (COLO 205): 23 µM (inactive) | GI50 (DU-145): > 100 µM (inactive) | GI50 (EKVX): 63.2 µM (inactive) | GI50 (HCC 2998): 19.3 µM (inactive) | GI50 (HCT-116): > 100 µM (inactive) | GI50 (HCT-15): 22.3 µM | GI50 (HL-60): 3.56 µM (inactive) | GI50 (HOP-62): 28.6 µM (inactive) | GI50 (HOP-92): 21.5 µM (inactive) | GI50 (HT-29): 19.1 µM (inactive) | GI50 (Hs-578T): 21.9 µM (inactive) | GI50 (IGROV-1): 21.5 µM (inactive) | GI50 (K562): < 0.01 µM (active) | GI50 (KM12): 19.5 µM (inactive) | GI50 (LOX IMVI): 16.1 µM (inactive) | GI50 (M14): 18.6 µM (inactive) | GI50 (MCF7): 25.8 µM (inactive) | GI50 (MDA-MB-231): 14.8 µM (inactive) | GI50 (MDA-MB-435): 22.6 µM (inactive) | GI50 (MDA-N): 28.1 µM (inactive) | GI50 (MOLT-4): 15.7 µM (inactive) | GI50 (NCI-H23): 41.2 µM (inactive) | GI50 (NCI-H460): 26.6 µM (inactive) | GI50 (NCI-H522): 16.9 µM (inactive) | GI50 (NCI/ADR-RES): 57.4 µM (inactive) | GI50 (OVCAR-3): 32.3 µM (inactive) | GI50 (OVCAR-4): 32.9 µM (inactive) | GI50 (OVCAR-5): 86.7 µM (inactive) | GI50 (OVCAR-8): 18.6 µM (inactive) | GI50 (PC-3): 25.3 µM (inactive) | GI50 (RPMI-8226): 14.5 µM (inactive) | GI50 (SF-268): 29.4 µM (inactive) | GI50 (SF-295): 14.2 µM (inactive) | GI50 (SF-539): 22.9 µM (inactive) | GI50 (SK-MEL-28): 18.8 µM (inactive) | GI50 (SK-MEL-2): 19.2 µM (inactive) | GI50 (SK-MEL-5): 16.3 µM (inactive) | GI50 (SN12C): 58.6 µM (inactive) | GI50 (SNB-19): 27.9 µM (inactive) | GI50 (SNB-75): 20.1 µM (inactive) | GI50 (SR): 4.91 µM (inactive) | GI50 (SW-620): 28.8 µM (inactive) | GI50 (T47D): > 100 µM (inactive) | GI50 (TK-10): 26.3 µM (inactive) | GI50 (U-251): 21.9 µM (inactive) | GI50 (UACC-257): 17 µM (inactive) | GI50 (UACC-62): 16.8 µM (inactive) | GI50 (UO-31): 13.9 µM (inactive)
